Measured values: patent publication EP0012729A1, “Therapeutic compositions containing as active compound a substituted acetic acid or its salt” ("IBIS" ISTITUTO BIOCHIMICO SPERIMENTALE S.p.A., priority 1978, dated 1980)

Test system: Wistar rats
Test: Choleretic activity in the rat, bile fistula method
Type: in vivo
Conditions: for Peak choleresis time of appearance / Peak choleresis % increase / Duration index: 200 mg/kg p.o. (dose given for 1620 only); for Peak choleresis % increase: increase over controls as percentage of base choleresis; for Duration index: time for halving the maximum choleresis increase; for Flow: 200 mg/kg p.o.; for ml of bile flow ± s.e.: second series
Source text: It is known that the primary effect of a choleretic agent is to increase the bile flow and the quantity of solid substances excreted with the bile. A good choleretic must provide this effect in a sufficiently intense and prolonged manner. In addition, as in the case of all drugs, it must have low acute toxicity and good general tolerability, but in particular must be free from toxic effects on the organ on which it is required to act, i.e. the liver, whether this is in a normal or pathological state. The analysis of the new product in comparison with the best known products for the same therapeutic use has therefore been focused on these aspects. The choleretic activity of the new product has been determined in the rat by using the bile fistula method. Wistar rats of both sexes and having a weight of between 180 and 240 g were used.
The animals, which were kept fasting for 12 hours but with free access to water, were narcotised by ethyl urethane in a dose of 1 g/kg by intra peritoneal or intramuscular injection.
After binding the animals to the retention bed, a median laparatomy was carried out, and when the bile duct had been isolated a cannula needle was inserted into it. A polythene tube was then inserted into those ani mals which were to receive the products intraduodenally, after which a su ture was carried out on the abdominal wall, and the bile was allowed to discharge for 30 minutes after inserting the cannula in the bile duct, so as to allow the discharge to become normal. The bile was then collec ted for one hour.
Having determined the volume of bile discharged during this first hour of collection (base volume), the products under examination were administered at the predetermined doses and by the predetermined methods. The bile excreted by the individual animals was then collected over each hour for a further six hours.
During the experiments, the animals were kept at ambient temperature of about 22°C, and at regular intervals of two hours received 10 ml/kg of physiological solution s.c.
The liquids were administered at a temperature of 37°C.
The bile flow and cholesterol excretion were determined on those bile fractions excreted by the animals over each hour starting from the base hour until the end of the experiment
The dry residue (R.So) was determined on the bile fraction excreted during the base hour and on the total bile fractions excreted during the sub sequent hours. For practical reasons, the determination of the dry residue and of the cholesterol (carried out by the Sperry & Webb method) were carried out on the pool of bile excreted by the entire group of animals subjected to the same treatment instead of on the bile fractions excreted by the individual animals (which was sometimes insufficient for determining the cholesterol).
In compiling the graphs, the differences between the choleresis in the treated animals and that in the controls was calculated over the considered time intervals, and expressed as a percentage of the base choleresis. For this calculation, the following formula was used: [formula] where Cn and C' represent the choleresis (in ml/kg/h for the bile flow, and in mg/kg/h for the dry residue) determined over the considered time interval for the group of treated animals and the group of controls respectively. Cb and C'b represent the base choleresis in the group of treated animals and group of controls respectively.
This index was calculated as the time for halving the maximum choleresis increase recorded under their effect.

Molecule | Peak choleresis time of appearance [st hour] | Peak choleresis % increase [%] | Duration index | Flow (0 (base hour)) | Flow (1h) | Flow (2h) | Flow (3h) | Flow (4h) | Flow (5h) | Flow (6h) | further results
CCC(C(=O)O)C1(O)CCC(c2ccccc2)CC1 (stereo not drawn) [α-(1-hydroxy--4-phenylcyclohexyl)butyric acid] | 1 | 105 | 180' | 2,70±0,25 ml/kg/h | 5,60±0,51 ml/kg/h | 5,42±0,47 ml/kg/h | 4,63±0,28 ml/kg/h | 3,68±0,18 ml/kg/h | 3,05±0,12 ml/kg/h | 2,70±0,17 ml/kg/h | ml of bile flow ± s.e. (oral by gastric probe 50 mg/kg, 0 (base values)): 2,8±0,22 ml; ml of bile flow ± s.e. (oral by gastric probe 50 mg/kg, 1 h): 3,2±0,11 ml; ml of bile flow ± s.e. (oral by gastric probe 50 mg/kg, 2 h): 3,0±0,12 ml; ml of bile flow ± s.e. (oral by gastric probe 50 mg/kg, 3 h): 2,9±0,10 ml; ml of bile flow ± s.e. (oral by gastric probe 50 mg/kg, 4 h): 2,8±0,12 ml; ml of bile flow ± s.e. (oral by gastric probe 50 mg/kg, 5 h): 2,5±0,10 ml; ml of bile flow ± s.e. (oral by gastric probe 50 mg/kg, 6 h): 2,0±0,11 ml; ml of bile flow ± s.e. (oral by gastric probe 100 mg/kg, 0 (base values)): 2,6±0,17 ml; ml of bile flow ± s.e. (oral by gastric probe 100 mg/kg, 1 h): 3,7±0,13 ml; ml of bile flow ± s.e. (oral by gastric probe 100 mg/kg, 2 h): 3,6±0,14 ml; ml of bile flow ± s.e. (oral by gastric probe 100 mg/kg, 3 h): 3,4±0,11 ml; ml of bile flow ± s.e. (oral by gastric probe 100 mg/kg, 4 h): 3,0±0,11 ml; ml of bile flow ± s.e. (oral by gastric probe 100 mg/kg, 5 h): 2,9±0,13 ml; ml of bile flow ± s.e. (oral by gastric probe 100 mg/kg, 6 h): 2,1±0,13 ml
dihydroxybutylether [Dihydroxydibutyl-ether] | 1 | 49 | 45' | 3,36±0,19 ml/kg/h | 5,10±0,23 ml/kg/h | 3,79±0,18 ml/kg/h | 3,08±0,15 ml/kg/h | 2,68±0,15 ml/kg/h | 1,97±0,05 ml/kg/h | 1,77±0,11 ml/kg/h | 
